The values that follow come from ChEMBL document CHEMBL1125208, “Applications of neural networks in quantitative structure-activity relationships of dihydrofolate reductase inhibitors” (J Med Chem, 1991).

In the test the target is T1, Dihydrofolate reductase (Mus musculus) (UniProt P00375).
T1 sequence (whole entry): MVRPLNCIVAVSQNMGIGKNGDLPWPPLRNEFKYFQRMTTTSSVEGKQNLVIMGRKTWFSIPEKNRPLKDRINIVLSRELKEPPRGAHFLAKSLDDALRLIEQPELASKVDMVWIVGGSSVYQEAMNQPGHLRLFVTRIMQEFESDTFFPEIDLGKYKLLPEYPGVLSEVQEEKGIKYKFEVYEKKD
Nature of the test: Inhibition of dihydrofolate reductase from L1210 leukemia tumors.

Turning to `CC1(C)N=C(N)N=C(N)N1c1ccc(OCc2ccc(S(=O)(=O)F)c(Cl)c2)c(Cl)c1`, the Log 1/C worked out at 7.43. The same measure for `CC1(C)N=C(N)N=C(N)N1c1cccc(CCCCc2cccc(S(=O)(=O)F)c2)c1`: 8.1. Take `CC1(C)N=C(N)N=C(N)N1c1cccc(CNC(=O)Nc2cccc(C#N)c2)c1`: the Log 1/C came out at 8.19. `CC1(C)N=C(N)N=C(N)N1c1ccc(OCc2ccc(COc3ccc(S(=O)(=O)F)cc3)cc2)c(Cl)c1` showed a Log 1/C of 6.82. Compound `CC1(C)N=C(N)N=C(N)N1c1cccc(CNC(=O)Nc2cccc([N+](=O)[O-])c2)c1` came in with a Log 1/C of 8.1. `CC1(C)N=C(N)N=C(N)N1c1ccc(OCc2cc(Cl)ccc2S(=O)(=O)F)c(Cl)c1` gave a Log 1/C of 7.27. `Cc1cc(NC(=O)NCc2ccc(N3C(N)=NC(N)=NC3(C)C)cc2)ccc1S(=O)(=O)F` showed a Log 1/C of 7.72.

As to `CC1(C)N=C(N)N=C(N)N1c1ccc(CCCCc2cc(Cl)ccc2S(=O)(=O)F)c(Cl)c1`, the Log 1/C was 7.06.

In the case of `CC1(C)N=C(N)N=C(N)N1c1ccc(Cl)c(OCCCOc2ccc(S(=O)(=O)F)cc2)c1`, the Log 1/C was found to be 7.51. Compound `CC1(C)N=C(N)N=C(N)N1c1cc(Cl)c(OCC(=O)Nc2ccc(S(=O)(=O)F)cc2)c(Cl)c1` gave a Log 1/C of 7.74. Regarding `CC1(C)N=C(N)N=C(N)N1c1ccc(CCCCc2ccc(S(=O)(=O)F)c(Cl)c2)c(Cl)c1`, the Log 1/C turned out to be 7.7.
